Measurements published in ChEMBL document CHEMBL2057066, “Heteroaromatic Moieties in the Sphingosine Backbone of α-Galactosylceramides for Noncovalent Interactions with CD1d” (ACS Med Chem Lett, 2012).
The source made the active and inactive calls. No cut-off for these calls is given here.

What was measured:
[1] = system: iNKT; assay: Immunomodulatory activity in mouse hepatic mononuclear cells containing iNKT cells assessed as IFNgamma release at 25 nM after 72 hrs by ELISA; type: functional, cell-based
[2] = system: iNKT; assay: Immunomodulatory activity in mouse hepatic mononuclear cells containing iNKT cells assessed as IL4 release at 25 nM after 72 hrs by ELISA; type: functional, cell-based
[3] = system: iNKT; assay: Immunomodulatory activity in mouse hepatic mononuclear cells containing iNKT cells assessed as IL4 release after 72 hrs by ELISA; type: functional, cell-based
[4] = system: Mus musculus; assay: Immunomodulatory activity in C57BL/6 mouse serum assessed as IL4 release at 2 ug/ml, iv after 2 to 16 hrs by ELISa; type: functional, organism-based
[5] = system: iNKT; assay: Immunomodulatory activity in mouse hepatic mononuclear cells containing iNKT cells assessed as IFNgamma release after 72 hrs by ELISA; type: functional, cell-based

SMILES	Activity [1]	Activity [2]	Activity [3]	Activity [4]	Activity [5]
CCCCCCCCCCCCCCCCCCCCCCCCCC(=O)N[C@@H](CO[C@H]1O[C@H](CO)[C@H](O)[C@H](O)[C@H]1O)[C@H](O)[C@H](O)CCCCCCCCCCCCCC	Active	Active			
CCCCCCCCCCCCCCCCCCCCCCCCCC(=O)N[C@@H](CO[C@H]1O[C@H](CO)[C@H](O)[C@H](O)[C@H]1O)[C@H](O)[C@H](O)c1cnn(Cc2ccc(CCCCCC)cc2)c1			Dose-dependent effect	Active	Dose-dependent effect
